For 15 compounds, IC50 results are on record in ChEMBL document CHEMBL3301562, “MMV Box screening against Plasmodium falciparum protein kinases and aminoacyl tRNA synthetases”.

Holding throughout (type): functional
Test [1] has as its target T1, Calcium-dependent protein kinase 4 (Plasmodium falciparum (isolate 3D7), UniProt Q8IBS5).
T1 sequence (Q8IBS5 whole entry): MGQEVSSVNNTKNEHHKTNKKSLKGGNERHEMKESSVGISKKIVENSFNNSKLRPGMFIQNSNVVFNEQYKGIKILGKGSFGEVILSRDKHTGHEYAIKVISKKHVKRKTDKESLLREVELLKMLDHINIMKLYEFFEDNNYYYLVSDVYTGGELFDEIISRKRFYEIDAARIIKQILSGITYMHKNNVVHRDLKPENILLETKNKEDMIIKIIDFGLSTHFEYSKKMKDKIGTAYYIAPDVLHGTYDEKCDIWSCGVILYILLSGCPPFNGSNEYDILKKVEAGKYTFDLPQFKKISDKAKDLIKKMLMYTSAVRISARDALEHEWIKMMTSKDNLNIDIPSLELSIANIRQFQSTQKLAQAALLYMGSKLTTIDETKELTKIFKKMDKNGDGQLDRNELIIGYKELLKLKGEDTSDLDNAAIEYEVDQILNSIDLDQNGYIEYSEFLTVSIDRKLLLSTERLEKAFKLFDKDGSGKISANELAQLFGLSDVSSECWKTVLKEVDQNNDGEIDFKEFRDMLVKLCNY
Description: MMV: CDPK4 Protein kinase inhibition assay using recombinant PfCDPK4, syntide2 peptide substrate, ATP and KinaseGlo to measure % inhibition at 1 uM MMV box compound.

Test [2] concerns the target Calcium-dependent protein kinase 1 (Plasmodium falciparum, UniProt P62344). Description: MMV: CDPK1 Protein kinase inhibition assay using recombinant PfCDPK1, syntide 2 peptide substrate, ATP and KinaseGlo to measure % inhibition at 1 uM MMV box compound.
Another test deals with Lysine--tRNA ligase (Plasmodium falciparum (isolate 3D7), UniProt Q8IDJ8). The test is described as follows: MMV: KRS recombinant Plasmodium falciparum Lysyl-tRNA-synthetase, assay with yeast tRNA, ATP, and lysine and 3 uM MMV malaria box compound, assay read out with kinase glo as % inhibition.
Chain of Lysine--tRNA ligase (Q8IDJ8 whole entry): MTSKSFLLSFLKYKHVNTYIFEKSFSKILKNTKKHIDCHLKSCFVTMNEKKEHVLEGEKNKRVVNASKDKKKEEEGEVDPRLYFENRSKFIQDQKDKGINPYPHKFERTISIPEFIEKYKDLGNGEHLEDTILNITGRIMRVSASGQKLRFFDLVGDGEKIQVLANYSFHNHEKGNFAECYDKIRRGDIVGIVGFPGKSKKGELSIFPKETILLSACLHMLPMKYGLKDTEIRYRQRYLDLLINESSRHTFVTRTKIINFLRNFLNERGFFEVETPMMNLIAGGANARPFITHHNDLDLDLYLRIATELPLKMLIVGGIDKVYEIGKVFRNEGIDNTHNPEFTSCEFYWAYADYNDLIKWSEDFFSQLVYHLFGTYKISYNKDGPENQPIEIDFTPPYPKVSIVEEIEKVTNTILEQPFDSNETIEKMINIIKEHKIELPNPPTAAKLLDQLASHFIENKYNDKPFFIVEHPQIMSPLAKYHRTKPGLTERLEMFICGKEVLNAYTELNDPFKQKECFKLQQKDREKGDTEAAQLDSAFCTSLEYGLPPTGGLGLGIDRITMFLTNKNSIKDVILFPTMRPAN
Test [3] has as its target T2, Mitogen-activated protein kinase (Plasmodium falciparum, UniProt Q25917).
T2 sequence (Q25917 whole entry): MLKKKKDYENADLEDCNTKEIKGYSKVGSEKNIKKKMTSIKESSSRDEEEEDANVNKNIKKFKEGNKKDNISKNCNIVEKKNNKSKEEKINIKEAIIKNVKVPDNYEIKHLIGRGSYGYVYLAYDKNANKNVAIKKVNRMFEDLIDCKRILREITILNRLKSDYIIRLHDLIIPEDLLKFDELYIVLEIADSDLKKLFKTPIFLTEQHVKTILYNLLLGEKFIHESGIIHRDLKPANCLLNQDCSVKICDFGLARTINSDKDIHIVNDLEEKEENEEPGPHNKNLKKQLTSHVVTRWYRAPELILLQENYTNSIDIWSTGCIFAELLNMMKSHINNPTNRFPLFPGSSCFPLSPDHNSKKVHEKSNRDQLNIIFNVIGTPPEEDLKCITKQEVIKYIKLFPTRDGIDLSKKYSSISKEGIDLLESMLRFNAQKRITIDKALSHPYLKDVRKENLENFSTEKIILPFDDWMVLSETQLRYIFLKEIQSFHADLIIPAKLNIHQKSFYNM
Description: Final concentrations were 1 uM ATP, 0.5 mM DTT, 1 mM MgCl2, 0.5 mg/mL BSA, and 10 ug/ml MAP2 in a buffer of 50 mM HEPES (pH 7.0). 0.5 mg/mL histone III-S served as the substrate (13); 100 uM AMP-PNP, an ATP analog, was used as a control inhibitor. Incubation time was 4 hours.

Test [4] addresses T3, Putative uncharacterized protein pk7 (Plasmodium falciparum, UniProt O96214).
T3 sequence (O96214 whole entry): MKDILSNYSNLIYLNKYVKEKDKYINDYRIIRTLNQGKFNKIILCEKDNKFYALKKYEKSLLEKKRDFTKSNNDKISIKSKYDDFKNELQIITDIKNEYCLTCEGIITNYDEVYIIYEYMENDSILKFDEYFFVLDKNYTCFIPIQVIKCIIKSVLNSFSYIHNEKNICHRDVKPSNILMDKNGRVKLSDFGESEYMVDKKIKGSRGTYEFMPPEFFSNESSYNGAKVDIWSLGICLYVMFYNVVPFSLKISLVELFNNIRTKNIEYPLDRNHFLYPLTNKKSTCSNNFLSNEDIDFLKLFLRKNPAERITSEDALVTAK
The test is described as follows: Final concentrations were 1 uM ATP, 2 mM DTT, 20 mM MgCl2, 2 mM MnCl2, 0.01% BSA, and 6 ug/ml PK7, in a buffer of 20 mM Tris-HCl (pH 7.5). The enzyme itself was the only substrate present (since autophosphorylation occurs); 100 uM 1NA-PP1 was used as a control inhibitor. Incubation time was 3 hours.

Test [5] concerns the target T4, Cdk-related protein kinase 6 (Plasmodium falciparum, UniProt O77239).
T4 sequence (O77239 whole entry): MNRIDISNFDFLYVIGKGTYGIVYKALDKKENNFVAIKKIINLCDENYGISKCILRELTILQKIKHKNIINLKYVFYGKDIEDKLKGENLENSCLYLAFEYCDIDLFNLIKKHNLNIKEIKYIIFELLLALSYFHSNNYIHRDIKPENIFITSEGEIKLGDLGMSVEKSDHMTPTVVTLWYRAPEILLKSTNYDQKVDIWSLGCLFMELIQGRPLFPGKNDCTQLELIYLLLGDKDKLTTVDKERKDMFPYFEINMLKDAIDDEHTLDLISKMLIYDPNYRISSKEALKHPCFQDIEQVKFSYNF
The test is described as follows: Final concentrations were 1.5 uM ATP, 5 mM MnCl2, and 15 ug/ml PK6 in a buffer of 100 mM Tris-HCl (pH 7.5). 50 ug/mL MBP was provided as the substrate; 10 uM staurosporine was used as a control inhibitor. Incubation time was 3 hours and 40 minutes.The catalytic activity of each kinase was considered proportional to ATP consumed, as determined from measurements of residual [ATP] with the luciferase-based reagent Kinase-Glo (Promega) following incubation. Luminescence (proportional to residual [ATP]) was measured on the plate readers FLx800 (BioTek Instruments, Winooski, VT, USA) and MicroBeta2.

A further test deals with T5, Proline--tRNA ligase (Plasmodium falciparum (isolate 3D7), UniProt Q8I5R7).
T5 sequence (Q8I5R7 whole entry): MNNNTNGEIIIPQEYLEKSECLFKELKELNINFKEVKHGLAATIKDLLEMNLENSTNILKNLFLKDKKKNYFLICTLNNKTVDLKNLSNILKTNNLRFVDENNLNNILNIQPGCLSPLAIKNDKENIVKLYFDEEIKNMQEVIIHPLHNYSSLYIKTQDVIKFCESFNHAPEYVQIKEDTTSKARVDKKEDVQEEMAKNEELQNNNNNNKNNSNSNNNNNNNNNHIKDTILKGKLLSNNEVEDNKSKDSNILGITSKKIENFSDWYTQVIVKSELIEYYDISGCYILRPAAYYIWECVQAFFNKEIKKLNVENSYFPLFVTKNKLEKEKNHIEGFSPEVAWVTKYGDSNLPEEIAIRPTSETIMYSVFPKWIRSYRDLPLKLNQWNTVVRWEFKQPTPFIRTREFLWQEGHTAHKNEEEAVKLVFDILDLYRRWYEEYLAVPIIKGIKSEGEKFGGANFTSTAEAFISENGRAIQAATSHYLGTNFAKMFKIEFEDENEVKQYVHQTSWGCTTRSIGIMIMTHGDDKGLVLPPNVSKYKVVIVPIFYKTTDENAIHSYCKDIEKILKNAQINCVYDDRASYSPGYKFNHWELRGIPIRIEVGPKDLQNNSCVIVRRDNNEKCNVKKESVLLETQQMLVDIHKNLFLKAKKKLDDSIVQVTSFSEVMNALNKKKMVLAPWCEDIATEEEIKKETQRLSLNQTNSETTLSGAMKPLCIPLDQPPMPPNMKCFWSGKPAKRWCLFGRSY
The test is described as follows: MMV: ProRS recombinant Plasmodium falciparum Prolyl-tRNA-synthetase, assay with yeast tRNA, ATP, and proline and 3 uM MMV malaria box compound, assay read out with kinase glo as % inhibition.

Chain of Calcium-dependent protein kinase 1 (P62344 whole entry): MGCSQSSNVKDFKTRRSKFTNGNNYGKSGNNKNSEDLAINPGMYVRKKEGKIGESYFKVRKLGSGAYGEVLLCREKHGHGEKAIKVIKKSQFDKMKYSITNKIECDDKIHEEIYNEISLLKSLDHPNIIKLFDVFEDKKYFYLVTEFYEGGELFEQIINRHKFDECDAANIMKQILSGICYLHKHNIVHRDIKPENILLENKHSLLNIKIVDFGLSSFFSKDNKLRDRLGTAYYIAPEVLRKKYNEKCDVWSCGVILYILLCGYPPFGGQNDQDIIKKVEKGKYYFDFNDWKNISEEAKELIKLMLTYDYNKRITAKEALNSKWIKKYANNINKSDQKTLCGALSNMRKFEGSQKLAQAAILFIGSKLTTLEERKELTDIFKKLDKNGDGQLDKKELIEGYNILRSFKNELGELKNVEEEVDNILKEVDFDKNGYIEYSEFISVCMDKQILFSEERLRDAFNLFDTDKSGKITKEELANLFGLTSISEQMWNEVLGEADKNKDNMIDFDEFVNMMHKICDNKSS

With `O=C1c2ccccc2-c2nnc(-c3ccc(Br)cc3)cc21`, the IC50 in test [1] is more than 1000 nM; in test [2], more than 1000 nM; at Lysine--tRNA ligase it was more than 2500 nM; in test [3] it was more than 1000 nM; in test [4], more than 1000 nM; in test [5], more than 1000 nM. The IC50 on Proline--tRNA ligase was more than 2500 nM.
As for `Cc1nc2ccccc2c(O)c1CC=C(Cl)Cl`, the IC50 in test [1] was more than 1000 nM; in test [2], more than 1000 nM; at Lysine--tRNA ligase, more than 2500 nM; in test [3] it was more than 1000 nM; in test [4], more than 1000 nM; in test [5], more than 1000 nM. The IC50 at Proline--tRNA ligase was more than 2500 nM.
Consider `CC(=O)c1ccc(NC(=O)CSc2nc(-c3ccccc3Cl)ns2)cc1`, for which the IC50 in test [1] is more than 1000 nM; in test [2], more than 1000 nM; on Lysine--tRNA ligase, more than 2500 nM; in test [3], more than 1000 nM; in test [4], more than 1000 nM; in test [5], more than 1000 nM. Also, the IC50 on Proline--tRNA ligase was more than 2500 nM.
In the case of `O=C(NCCCN1CCC(N2CCCCC2)CC1)C1=Cc2cc(Br)ccc2OC1`, the IC50 is more than 1000 nM in test [1]; more than 1000 nM in test [2]; more than 2500 nM at Lysine--tRNA ligase; more than 1000 nM in test [3]; more than 1000 nM in test [4]; more than 1000 nM in test [5]. In addition, the IC50 at Proline--tRNA ligase was more than 2500 nM.
`CCOC(=O)c1cnc2ccc(Cl)cc2c1NCCCN(C)C`: the IC50 was more than 1000 nM in test [1]; more than 1000 nM in test [2]; more than 2500 nM on Lysine--tRNA ligase; more than 1000 nM in test [3]; more than 1000 nM in test [4]; more than 1000 nM in test [5]. Also, the IC50 on Proline--tRNA ligase was more than 2500 nM.
With `O=C1c2ccccc2C2=Nc3ccccc3SC(c3cccc(F)c3)C12` (stereo not given), the IC50 in test [1] was more than 1000 nM; in test [2], more than 1000 nM; at Lysine--tRNA ligase, more than 2500 nM; in test [3] it was more than 1000 nM; in test [4], more than 1000 nM; in test [5] it was more than 1000 nM. At Proline--tRNA ligase, the IC50 is more than 2500 nM.
For the compound `Cc1ccccc1OCCSc1nc2ccc(NC(=O)c3ccccc3)cc2s1`, the IC50 was more than 1000 nM in test [1]; more than 1000 nM in test [2]; more than 2500 nM on Lysine--tRNA ligase; more than 1000 nM in test [3]; more than 1000 nM in test [4]; more than 1000 nM in test [5]. Further, on Proline--tRNA ligase, the IC50 was more than 2500 nM.
With `CC(C)(C)c1ccc(C(=O)Nc2c3c(nn2-c2cccc(Cl)c2)CSC3)cc1`, the concentration for half-maximal inhibition (IC50) in test [1] was more than 1000 nM; in test [2] it was more than 1000 nM; at Lysine--tRNA ligase, more than 2500 nM; in test [3], more than 1000 nM; in test [4] it was more than 1000 nM; in test [5] it was more than 1000 nM. Besides, at Proline--tRNA ligase, the IC50 is more than 2500 nM.
As to `CCOC(=O)C1(Cc2ccccc2)CCN(Cc2cccc(OC)c2O)CC1`, the IC50 in test [1] was more than 1000 nM; in test [2], more than 1000 nM; at Lysine--tRNA ligase it was more than 2500 nM; in test [3], more than 1000 nM; in test [4], more than 1000 nM; in test [5] it was more than 1000 nM. Besides, the half-maximal inhibitory concentration (IC50) at Proline--tRNA ligase is more than 2500 nM.
For the compound `Oc1ccc(C(=C(Cl)Cl)c2ccc(O)cc2)cc1`, the IC50 in test [1] was more than 1000 nM; in test [2] it was more than 1000 nM; on Lysine--tRNA ligase, more than 2500 nM; in test [3], more than 1000 nM; in test [4] it was more than 1000 nM; in test [5], more than 1000 nM. For the same compound, the IC50 at Proline--tRNA ligase was more than 2500 nM.
Take `CC(C)(C)c1ccc2c(c1)CN(Cc1ccc(Cl)cc1)CO2`: the IC50 is more than 1000 nM in test [1]; more than 1000 nM in test [2]; more than 2500 nM at Lysine--tRNA ligase; more than 1000 nM in test [3]; more than 1000 nM in test [4]; more than 1000 nM in test [5]. The IC50 on Proline--tRNA ligase was more than 2500 nM.
As to `COc1ccc(OC)c(C2C3=C(CC(C)(C)CC3=O)N(c3ccc(Cl)c(Cl)c3)C3=C2C(=O)CC(C)(C)C3)c1`, the IC50 was more than 1000 nM in test [1]; more than 1000 nM in test [2]; more than 2500 nM on Lysine--tRNA ligase; more than 1000 nM in test [3]; more than 1000 nM in test [4]; more than 1000 nM in test [5]. On Proline--tRNA ligase, the IC50 was more than 2500 nM.
In the case of `OC1CCCCC1C1(NC(=S)Nc2ccccc2)CCCCC1` (stereo not given), the IC50 in test [1] is more than 1000 nM; in test [2], more than 1000 nM; on Lysine--tRNA ligase, more than 2500 nM; in test [3], more than 1000 nM; in test [4], more than 1000 nM; in test [5] it was more than 1000 nM. Besides, on Proline--tRNA ligase, the IC50 was more than 2500 nM.
With `OC1=C2C(=Nc3ccccc3SC2c2ccc(Br)cc2)c2ccccc21` (stereo not given), the IC50 was more than 1000 nM in test [1]; more than 1000 nM in test [2]; more than 2500 nM on Lysine--tRNA ligase; more than 1000 nM in test [3]; more than 1000 nM in test [4]; more than 1000 nM in test [5]. The IC50 at Proline--tRNA ligase is more than 2500 nM.
`CCCCCn1c(=N)n(CC(O)COc2cccc(C)c2)c2ccccc21` (stereo not given): the IC50 in test [1] was more than 1000 nM; in test [2], more than 1000 nM; on Lysine--tRNA ligase, more than 2500 nM; in test [3], more than 1000 nM; in test [4], more than 1000 nM; in test [5] it was more than 1000 nM. Further, the IC50 on Proline--tRNA ligase is more than 2500 nM.
